In assay [1] the target is T1, purified recombinantly expressed human SSAO (Homo sapiens, UniProt Q16853).
T1 construct: made in house
T1 sequence (Q16853 1-763): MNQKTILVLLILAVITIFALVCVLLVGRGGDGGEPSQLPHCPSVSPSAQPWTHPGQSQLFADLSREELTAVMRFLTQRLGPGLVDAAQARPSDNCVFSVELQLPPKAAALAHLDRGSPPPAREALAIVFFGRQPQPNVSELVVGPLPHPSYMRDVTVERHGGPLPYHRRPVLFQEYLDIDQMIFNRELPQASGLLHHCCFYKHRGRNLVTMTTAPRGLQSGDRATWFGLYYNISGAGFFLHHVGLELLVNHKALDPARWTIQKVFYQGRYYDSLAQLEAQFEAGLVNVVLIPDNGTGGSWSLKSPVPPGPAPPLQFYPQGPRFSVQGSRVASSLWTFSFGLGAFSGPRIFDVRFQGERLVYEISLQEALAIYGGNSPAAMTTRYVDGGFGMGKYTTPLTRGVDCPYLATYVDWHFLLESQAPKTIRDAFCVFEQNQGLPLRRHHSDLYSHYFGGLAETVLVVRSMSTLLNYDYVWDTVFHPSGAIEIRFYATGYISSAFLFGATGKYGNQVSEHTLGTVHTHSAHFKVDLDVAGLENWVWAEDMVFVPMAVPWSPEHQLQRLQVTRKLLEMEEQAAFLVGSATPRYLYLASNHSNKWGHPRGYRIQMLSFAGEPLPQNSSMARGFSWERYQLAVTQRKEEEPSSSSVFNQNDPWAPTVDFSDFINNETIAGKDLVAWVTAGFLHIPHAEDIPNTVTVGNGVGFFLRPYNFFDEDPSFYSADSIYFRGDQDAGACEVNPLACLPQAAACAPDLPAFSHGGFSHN
Put plainly: SSAO enzyme inhibition assay (benzylamine substrate; hydrogen peroxide/HRP-coupled or 14C aldehyde detection). The note with it: SSAO inhibitory activity, RT. The class given is biochemical. The method, boiled down:
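IC50 values came from a four-parameter logistic fit of % signal decrease versus DMSO control, with no-enzyme background subtracted. Two read-outs were used with human recombinant SSAO after ~15 min compound pre-incubation at RT. In the H2O2/HRP-Amplex read-out, enzyme was 1 ug/ml and benzylamine 100 uM (pH 7.4 phosphate), with resorufin fluorescence followed 1-2 h. In the 14C-benzaldehyde read-out (PBS), enzyme was 10 ug/ml and benzylamine 40 uM, run 1 h then acid-stopped.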

The target of assay [2] is T2, human ether a go-go related gene (hERG) K+ channel (Homo sapiens, UniProt Q12809).
T2 construct: a Chinese Hamster Lung cell line stably expressing the full length hERG channel; expressed in transfected cells; host or cells: Chinese Hamster Lung cell line
The assay can be described thus: hERG assay, IonWorks patch clamp electrophysiology. The class given is cell-based. The note with it: Chinese Hamster Lung cell line stably expressing hERG; max assay concentration 11 uM. As for the experimental part: Compounds of the invention were tested for inhibition of the human ether a go-go related gene (hERG) K^+ channel using IonWorks patch clamp electrophysiology. 8 Point concentration-response curves were generated on two occasions using 3-fold serial dilutions from the maximum assay concentration (11 uM). Electrophysiological recordings were made from a Chinese Hamster Lung cell line stably expressing the full length hERG channel. Single cell ion currents were measured in the perforated patch clamp configuration (100 ug/mL amphoterocin) at room temperature using an IonWorks Quattro instrument. The internal solution contained 140 mM KCl, 1 mM MgCl2, 1 mM EGTA and 20 mM HEPES and was buffered to pH 7.3. The external solution contained 138 mM NaCl, 2.7 mM KCl, 0.9 mM CaCl2, 0.5 mM MgCl2, 8 mM Na2HPO4 and 1.5 mM KH2PO4, and was buffered to pH 7.3. […] This sequence was repeated 5 times at a frequency of 0.25 Hz. Currents were measured from the tail step at the 5th pulse, and referenced to the holding current. Compounds were incubated for 6-7 min prior to a second measurement of the hERG signal using an identical pulse train. […] A control compound (quinidine) was used (see Table 20 below).
(In general: hERG is a cardiac potassium channel; its block is linked to QT prolongation.)

By IC50 is commonly meant the concentration that inhibits the measured activity by half.

T2 sequence (Q12809 whole entry): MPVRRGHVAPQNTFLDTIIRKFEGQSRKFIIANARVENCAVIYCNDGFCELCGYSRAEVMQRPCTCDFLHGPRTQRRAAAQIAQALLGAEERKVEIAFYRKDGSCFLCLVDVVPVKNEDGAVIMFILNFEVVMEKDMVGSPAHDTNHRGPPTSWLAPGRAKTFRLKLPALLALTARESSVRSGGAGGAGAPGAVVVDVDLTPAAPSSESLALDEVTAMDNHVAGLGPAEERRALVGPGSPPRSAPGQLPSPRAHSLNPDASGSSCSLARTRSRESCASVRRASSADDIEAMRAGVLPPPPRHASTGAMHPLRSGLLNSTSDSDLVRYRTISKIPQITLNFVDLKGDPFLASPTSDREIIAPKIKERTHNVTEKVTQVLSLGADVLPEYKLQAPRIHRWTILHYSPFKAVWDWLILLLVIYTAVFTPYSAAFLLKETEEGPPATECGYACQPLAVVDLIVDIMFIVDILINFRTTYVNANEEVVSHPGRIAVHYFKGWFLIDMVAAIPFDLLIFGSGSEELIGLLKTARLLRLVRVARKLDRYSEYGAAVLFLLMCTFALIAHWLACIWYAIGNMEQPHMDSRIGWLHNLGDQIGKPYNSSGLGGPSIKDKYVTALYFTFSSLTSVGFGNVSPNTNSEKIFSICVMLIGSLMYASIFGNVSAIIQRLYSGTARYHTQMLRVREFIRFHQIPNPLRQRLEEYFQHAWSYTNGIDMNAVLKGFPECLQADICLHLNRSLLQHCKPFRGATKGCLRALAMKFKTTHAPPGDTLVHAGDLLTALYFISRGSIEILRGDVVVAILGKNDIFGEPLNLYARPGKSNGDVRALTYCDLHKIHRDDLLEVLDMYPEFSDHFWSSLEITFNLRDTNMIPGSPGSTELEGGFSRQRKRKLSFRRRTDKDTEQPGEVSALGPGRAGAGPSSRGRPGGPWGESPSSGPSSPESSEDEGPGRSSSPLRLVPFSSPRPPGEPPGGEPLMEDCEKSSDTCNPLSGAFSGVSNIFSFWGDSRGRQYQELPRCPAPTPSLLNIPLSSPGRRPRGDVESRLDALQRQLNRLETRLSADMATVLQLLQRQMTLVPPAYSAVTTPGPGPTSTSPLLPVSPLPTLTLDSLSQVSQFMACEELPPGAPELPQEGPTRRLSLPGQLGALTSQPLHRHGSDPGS

`Clc1ccc(-n2c(-c3ccc(N4CCNCC4)nc3)nc3ccncc32)cc1` [Example 50, 1-{5-[3-(4-Chlorophenyl)-3H-imidazo[4,5-c]pyridin-2-yl]pyridin-2-yl}piperazine]: the IC50 in assay [1] was under 50 nM; in assay [2] it was over 10000 nM.
For the compound `Clc1ccc(-n2c(-c3cccnc3)cc3ccncc32)cc1` [Example 122, 3-[1-(4-Chlorophenyl)-1H-pyrrolo[2,3-c]pyridin-2-yl]pyridine], the IC50 is 50 to 200 nM in assay [1] and 1000 to 10000 nM in assay [2].
Taken in the same sequence, the figures for `Clc1ccc(-n2c(-c3ccc(CN4CCOCC4)nc3)cc3ccncc32)cc1` [Example 140, 4-({5-[1-(4-Chlorophenyl)-1H-pyrrolo[2,3-c]pyridin-2-yl]pyridin-2-yl}methyl)morpholine] were under 50 nM and 1000 to 10000 nM.
With `Cc1ccc(-n2c(-c3ccc(N4CCOCC4)nc3)nc3ccncc32)cc1` [Example 63, 4-{5-[3-(4-Methylphenyl)-3H-imidazo[4,5-c]pyridin-2-yl]pyridin-2-yl}morpholine], the half-inhibitory concentration (IC50) in assay [1] is 200 to 1200 nM; in assay [2], over 10000 nM.
The like results for `Cc1ccc(-n2c(-c3ccc(N4CCOCC4)nc3)nc3ccncc32)c(F)c1` [Example 67, 4-{5-[3-(2-Fluoro-4-methylphenyl)-3H-imidazo[4,5-c]pyridin-2-yl]pyridin-2-yl}morpholine] were, in that order, under 50 nM and 1000 to 10000 nM.
The like results for `O=c1cc(-c2cc3ccncc3n2-c2ccc(Cl)cc2)ccn1C1CC1` [Example 138, 4-[1-(4-Chlorophenyl)-1H-pyrrolo[2,3-c]pyridin-2-yl]-1-cyclopropyl-1,2-dihydropyridin-2-one] were, in that order, under 50 nM and 1000 to 10000 nM.
Taken in the same sequence, the figures for `Clc1ccc(-n2c(-c3cnc(N4CCOCC4)nc3)nc3ccncc32)cc1` [Example 51, 4-{5-[3-(4-Chlorophenyl)-3H-imidazo[4,5-c]pyridin-2-yl]pyrimidin-2-yl}morpholine] were under 50 nM and 1000 to 10000 nM.
With `CC1CN(c2ccc(-c3nc4ccncc4n3-c3ccc(F)cc3)cn2)CCO1` (stereo not shown) [Example 70, 4-{5-[3-(4-Fluorophenyl)-3H-imidazo[4,5-c]pyridin-2-yl]pyridin-2-yl}-2-methylmorpholine], the IC50 in assay [1] is under 50 nM; in assay [2], over 10000 nM.
As to `Clc1ccc(-n2c(-c3cnc(N4CCOCC4)nc3)cc3ccncc32)cc1` [Example 127, 4-{5-[1-(4-Chlorophenyl)-1H-pyrrolo[2,3-c]pyridin-2-yl]pyrimidin-2-yl}morpholine], the 50% inhibitory concentration (IC50) in assay [1] was under 50 nM; in assay [2] it was 100 to 1000 nM.
Taken in the same sequence, the figures for `Fc1cc(Cl)ccc1-n1c(-c2cnc(N3CCOCC3)nc2)nc2ccncc21` [Example 77, 4-{5-[3-(4-Chloro-2-fluorophenyl)-3H-imidazo[4,5-c]pyridin-2-yl]pyrimidin-2-yl}morpholine] were 200 to 1200 nM and over 10000 nM.
The like results for `Cc1ccc(-n2c(-c3cnc(N4CCOCC4)nc3)nc3ccncc32)c(F)c1` [Example 53, 4-{5-[3-(2-Fluoro-4-methylphenyl)-3H-imidazo[4,5-c]pyridin-2-yl]pyrimidin-2-yl}morpholine] were, in that order, 200 to 1200 nM and over 10000 nM.
As to `Clc1ccc(-n2c(-c3ccncc3)nc3ccncc32)cc1` [Example 2, 4-[3-(4-Chlorophenyl)-3H-imidazo[4,5-c]pyridin-2-yl] pyridine], the values for the concentration for half-maximal inhibition (IC50) in assay [1] and in assay [2] were 200 to 1200 nM and over 10000 nM, respectively.
Taken in the same sequence, the figures for `c1ccc(-n2c(-c3cnc(N4CCOCC4)nc3)nc3ccncc32)cc1` [Example 95, 4-(5-{3-Phenyl-3H-imidazo[4,5-c]pyridin-2-yl}pyrimidin-2-yl)morpholine] were 50 to 200 nM and over 10000 nM.
Taken in the same sequence, the figures for `Cc1ccc(-n2c(-c3ccc(N4CCOCC4)nc3)nc3ccncc32)cn1` [Example 64, 4-{5-[3-(6-Methylpyridin-3-yl)-3H-imidazo[4,5-c]pyridin-2-yl]pyridin-2-yl}morpholine] were 200 to 1200 nM and over 10000 nM.
The like results for `Clc1ccc(-n2c(-c3ccc(N4CCOCC4)nc3)nc3ccncc32)nc1` [Example 81, 4-{5-[3-(5-Chloropyridin-2-yl)-3H-imidazo[4,5-c]pyridin-2-yl]pyridin-2-yl}morpholine] were, in that order, under 50 nM and over 10000 nM.
In the case of `Cc1ccc(-n2c(-c3ccc(N4CCOCC4)nc3)nc3ccncc32)nc1` [Example 82, 4-{5-[3-(5-Methylpyridin-2-yl)-3H-imidazo[4,5-c]pyridin-2-yl]pyridin-2-yl}morpholine], the half-maximal inhibitory concentration (IC50) is under 50 nM in assay [1] and over 10000 nM in assay [2].
With `Fc1ccc(-n2c(-c3cnc(N4CCCC4)nc3)nc3ccncc32)cc1` [Example 69, 5-[3-(4-Fluorophenyl)-3H-imidazo[4,5-c]pyridin-2-yl]-2-(pyrrolidin-1-yl)pyrimidine], the values for the IC50 in assay [1] and in assay [2] were under 50 nM and over 10000 nM, respectively.
The like results for `Clc1ccc(-n2c(-c3cnc(N4CCOCC4)nc3)nc3ccncc32)nc1` [Example 75, 4-{5-[3-(5-Chloropyridin-2-yl)-3H-imidazo[4,5-c]pyridin-2-yl]pyrimidin-2-yl}morpholine; tris(trifluoroacetic acid)] were, in that order, under 50 nM and over 10000 nM.
The like results for `CC(=O)NC1CCN(c2ccc(-c3nc4ccncc4n3-c3ccc(Cl)cc3)cn2)CC1` [Example 85, N-(1-{5-[3-(4-Chlorophenyl)-3H-imidazo[4,5-c]pyridin-2-yl]pyridin-2-yl}piperidin-4-yl)acetamide] were, in that order, under 50 nM and over 10000 nM.
The like results for `Fc1cc(Cl)ccc1-n1c(-c2ccc(N3CCOCC3)nc2)nc2ccncc21` [Example 80, 4-{5-[3-(4-Chloro-2-fluorophenyl)-3H-imidazo[4,5-c]pyridin-2-yl]pyridin-2-yl}morpholine] were, in that order, 50 to 200 nM and over 10000 nM.
For `Clc1ccc(-n2c(-c3ccc(CN4CCOCC4)nc3)nc3ccncc32)cc1` [Example 3, 4-({5-[3-(4-Chlorophenyl)-3H-imidazo[4,5-c]pyridin-2-yl]pyridin-2-yl}methyl) morpholine], the IC50 is 50 to 200 nM in assay [1] and over 10000 nM in assay [2].
Taken in the same sequence, the figures for `O=C1CN(c2ncc(-c3nc4ccncc4n3-c3ccc(F)cc3)cn2)CCN1` [Example 12, 4-{5-[3-(4-Fluorophenyl)-3H-imidazo[4,5-c]pyridin-2-yl]pyrimidin-2-yl}piperazin-2-one] were 50 to 200 nM and over 10000 nM.
The like results for `Fc1ccc(-n2c(-c3cnc(N4CCOCC4)c(F)c3)nc3ccncc32)cc1` [Example 98, 4-{3-Fluoro-5-[3-(4-fluorophenyl)-3H-imidazo[4,5-c]pyridin-2-yl]pyridin-2-yl]morpholine] were, in that order, 50 to 200 nM and over 10000 nM.
Turning to `Fc1ccc(-n2c(-c3cnc(N4CCOCC4)nc3)nc3ccncc32)cc1` [Example 52, 4-{5-[3-(4-Fluorophenyl)-3H-imidazo[4,5-c]pyridin-2-yl]pyrimidin-2-yl}morpholine], the IC50 is under 50 nM in assay [1] and over 10000 nM in assay [2].
On to `Nc1cc(-c2cc3ccncc3n2-c2ccc(Cl)cc2)ccn1` [Example 147, 4-[1-(4-Chlorophenyl)-1H-pyrrolo[2,3-c]pyridin-2-yl]pyridin-2-amine], for which the concentration for half-maximal inhibition (IC50) in assay [1] is under 50 nM; in assay [2], 1000 to 10000 nM.
Taken in the same sequence, the figures for `Fc1ccc(-n2c(-c3cnc(N4CCOCC4)nc3)nc3ccncc32)c(F)c1` [Example 78, 4-{5-[3-(2,4-Difluorophenyl)-3H-imidazo[4,5-c]pyridin-2-yl]pyrimidin-2-yl}morpholine] were under 50 nM and over 10000 nM.

(Values after US20150258101A1 (Proximagen Limited, priority 2014, published 2015).)
